Assay results reported in patent US20130178453A1, “Cannabinoid Agonists” (priority 2010, published 2013).
Like-named read-outs stand apart in the source and are kept apart here.

Key:
hCB1 = hCB1 (Homo sapiens, UniProt P21554); experiment: hCB1 radioligand binding assay ([3H]-CP 55,940 displacement); settings: HEK membranes
Source text: (§1) cDNA expression clones for human CB 1 (hCB1, Genbank Accession No. AY225225) and human CB2 (hCB2, Genbank Accession No. AY242132) expressed in vector pcDNA3.1+ were purchased from UMR cDNA Resource Center, Rolla, Mo. (Clone ID CNR01L000 for hCB1; CNR0200000 for hCB2).
Stable, HEK-293-derived cell lines that recombinantly express hCB1 or hCB2 were established. In brief, the clone hCB1 (CNR1L) or hCB2 (CNR2) was transfected into human embryonic kidney cells (HEK-293) using Lipofectamine 2000 (Gibco, Cat#11668-019) according to the manufacturer's protocol. Transfected clones were isolated by single colony purification and clones were screened for receptor expression using a whole cell, ^3H—CP 55,940 radioligand binding assay. HEK-293 stable cells were maintained in Dulbecco's modified Eagles medium (DMEM) containing 10% fetal bovine serum, 2 mM L-glutamine and 0.5 mg/mL G-418.
(§2) Membranes were isolated from transfected cells as follows. Monolayers of cultured cells were washed twice with phosphate-buffered saline (PBS). Cells were scraped into 20 mM HEPES, pH 7.4, 10 mM EDTA containing complete cocktail protease inhibitors (Roche, Catalog #11 697 498 001), and were homogenized by an electric-powered mechanical probe homogenizer (Omni GLH; probe G7-195S) for 40 seconds at 7000 rpm. Homogenates were centrifuged 10 minutes at 1000×g at 4° C. The supernatant was collected and was centrifuged for 1 hour at 40,000×g. The supernatant was then decanted and the resulting pellet was re-suspended in 20 mM HEPES, pH 7.4, 5 mM MgCl2, 1 mM EDTA, 10% sucrose with complete cocktail protease inhibitors. Protein concentration of membrane suspensions were measured by Bradford Protein Assay using bovine serum albumin as the standard (BioRad catalog #500-0006). Protein concentrations of membrane suspensions were adjusted with the final buffer in the range of 5 to 10 mg/mL and were stored at −80° C. until further use.
Radioligand binding assays were performed by incubating membranes (2-10 μg protein) prepared from HEK-293 cells expressing recombinant human cannabinoid receptors, CB 1 or CB2, at room temperature with 0.5 nM cannabinoid receptor agonist, [^3H]-CP 55,940 (Perkin Elmer, catalog #NET 1051) in 0.2 mL of binding buffer (50 mM Tris-HCl, pH 7.5, 5 mM MgCl2, 2.5 mM EDTA) and 0.1% fatty acid free bovine serum albumin (Sigma Cat. #A0821) for 90 minutes. A rapid filtration technique using Millipore FB filter plates (Catalog #MADVNOB) and filtration apparatus (Millipore system Catalog MAVM0960R) with vacuum aspiration was used to harvest and rinse labeled membranes (8 times with 0.2 mL of chilled binding buffer). The radioactivity bound to the filters was counted with 0.05 mL of liquid scintillant (UltraGold MV, PerkinElmer catalog #6013159) in a scintillation counter (Perkin Elmer Microbeta instrument). Nonspecific binding was determined in the presence of unlabeled 1 μM CP 55,940 (Sigma Aldrich, catalog #C1112). Binding data were analyzed using GraphPad Prism (GraphPad Software, Inc. San Diego, Calif.).

hCB2 [1] = target: T1, hCB2 (Homo sapiens, UniProt P34972); experiment: hCB2 GTPγS agonist assay (HEK-293 membranes); format: biochemical
T1 sequence (P34972 whole entry): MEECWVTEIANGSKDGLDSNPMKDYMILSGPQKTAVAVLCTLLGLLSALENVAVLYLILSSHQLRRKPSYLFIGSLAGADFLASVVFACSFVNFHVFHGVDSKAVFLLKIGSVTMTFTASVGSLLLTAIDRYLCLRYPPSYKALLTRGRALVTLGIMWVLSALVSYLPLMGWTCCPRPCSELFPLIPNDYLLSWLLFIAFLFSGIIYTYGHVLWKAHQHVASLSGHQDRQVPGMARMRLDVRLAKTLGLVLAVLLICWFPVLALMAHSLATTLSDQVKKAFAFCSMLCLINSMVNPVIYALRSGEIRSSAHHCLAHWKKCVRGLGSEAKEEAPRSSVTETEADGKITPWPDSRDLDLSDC
Protocol: as §1
as §2, with “Cells were scraped into 20 mM HEPES, pH 7.4, 10 mM EDTA containing complete cocktail protease inhibitors (Roche, Catalog #11 697 498 001), and were homogenized by an electric-powered mechanical probe homogenizer (Omni GLH; probe G7-195S) for 40 seconds at 7000 rpm.” left out
^35S GTPγS binding assays were performed by incubating recombinant cell membranes prepared above (5 μg) in the presence of scintillation proximity assay beads (SPA beads, Catalog #RPNQ0252 GE Healthcare, Buckinghamshire, England) in GTPγS binding buffer [50 mM HEPES (pH 7.4), 100 mM NaCl, 5 mM MgCl2, 0.001% saponin (Sigma catalog #S4521)] supplemented with 20 uM GDP (Sigma catalog #G7127) in the presence or absence of test compound. The reaction was carried out in 96-well microplates with 0.1 nM [^35S]GTPγS (specific activity=1250 Ci/mmol; Perkin Elmer catalog #NEG030X250UC) in a final volume of 100 μL. After a 90 min room temperature incubation, the reaction was analyzed using a scintillation counter (Perkin Elmer Microbeta instrument). Binding data were analyzed using GraphPad Prism.

hCB2 [2] = target: T1, hCB2; experiment: hCB2 radioligand binding assay ([3H]-CP 55,940 displacement); settings: HEK membranes
Protocol: as §1
as §2, with “Cells were scraped into 20 mM HEPES, pH 7.4, 10 mM EDTA containing complete cocktail protease inhibitors (Roche, Catalog #11 697 498 001), and were homogenized by an electric-powered mechanical probe homogenizer (Omni GLH; probe G7-195S) for 40 seconds at 7000 rpm.” left out
A rapid filtration technique using Millipore FB filter plates (Catalog #MADVNOB) and filtration apparatus (Millipore system Catalog MAVM0960R) with vacuum aspiration was used to harvest and rinse labeled membranes (8 times with 0.2 mL of chilled binding buffer). […] Binding data were analyzed using GraphPad Prism (GraphPad Software, Inc. San Diego, Calif.).

hCB2 [3] = target: T1, hCB2; experiment: hCB2 cAMP agonist assay (HEK-293 cells); format: cell-based
Protocol: as §1
cAMP assays were performed in HEK-293 cells stably expressing human CB 1 or CB2 receptors. […] Cells suspensions were centrifuged and the cells were washed once with PBS, were centrifuged again, and the cells were resuspended in HBSS (Hank's Balanced Salt Solution, Cellgro, Cat #21-022-CV) solution containing 10 mM HEPES and 0.1% fatty acid free BSA (Sigma, Cat #A0281). Cell suspensions were prepared at 1,500,000 cells per mL. Stock solutions of test substances (10 mM) in DMSO were diluted to 1 mM using 30% DMSO as diluent. Test substances of solutions (1 mM) were further diluted down to 3× of final assay concentrations in the above HBSS buffer containing 0.1% BSA in the presence of 90 uM forskolin (Sigma Cat#F6886). To perform the assay, 20 μL of cell suspension (1,500,000 cells/mL) were added to each well in 96 well plate and treated with 10 μL test substance solution diluted as described above. Cells and compounds were incubated at 37° C. for 30 minutes. Cells were lysed and cAMP concentration was measured using DiscoveRx-XS+ cAMP assay kit (DiscoveRx Corporation Ltd., Fremont, Calif., USA, Cat #90-0075-03), following the manufacturer's protocol. GraphPad Prism software was used to calculate EC50 values using sigmoidal dose response curve fitting. The maximal amount of cAMP produced by forskolin was defined as 100%.

[4] = GTPγS agonist, HEK membranes, read-out: hCB2 EC50 (GTPyS ag, nM, HEK)
[5] = cAMP agonist, HEK, 96-well, read-out: hCB2 EC50 (cAMP ag, nM, HEK (96-well))

hCB1, sequence (P21554 whole entry): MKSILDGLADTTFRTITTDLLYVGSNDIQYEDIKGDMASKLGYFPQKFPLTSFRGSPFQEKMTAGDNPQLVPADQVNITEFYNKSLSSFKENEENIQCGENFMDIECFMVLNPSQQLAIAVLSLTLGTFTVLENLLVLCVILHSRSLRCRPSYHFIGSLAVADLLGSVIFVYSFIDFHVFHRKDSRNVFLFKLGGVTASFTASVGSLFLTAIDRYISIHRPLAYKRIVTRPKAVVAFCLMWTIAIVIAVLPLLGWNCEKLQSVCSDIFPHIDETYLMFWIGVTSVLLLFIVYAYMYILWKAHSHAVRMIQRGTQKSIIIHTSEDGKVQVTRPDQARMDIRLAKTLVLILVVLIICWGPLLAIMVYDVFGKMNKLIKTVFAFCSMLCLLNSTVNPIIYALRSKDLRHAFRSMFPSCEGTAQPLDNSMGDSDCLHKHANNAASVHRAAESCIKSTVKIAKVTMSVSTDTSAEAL

Compound | IC50 (hCB1; hCB1 IC50 (CP displ, nM, HEK)) | EC50 (hCB2 [1]) | IC50 (hCB2 [2]; hCB2 IC50 (CP displ, nM, HEK)) | EC50 (hCB2 [1]; [4]) | IC50 (hCB1; read-out: hCB1 IC50 (CP displ, nM, HEK)) | IC50 (hCB2 [2]; read-out: hCB2 IC50 (CP displ, nM, HEK)) | EC50 (hCB2 [3]) | hCB1 IC50 (CP displ, nM, HEK) (hCB1) | EC50 (hCB2 [3]; [5])
Cc1c(C(=O)c2cccc3ccccc23)c2sccc2n1CCN1CCOCC1 [Compound I-1] | 100 to 1000 nM | < 100 nM | < 100 nM | – | – | – | – | – | –
CCCn1c(C)c(C(=O)c2cccc3ccccc23)c2ccsc21 [Compound I-2] | 1000 to 10000 nM | 100 to 1000 nM | 100 to 1000 nM | – | – | – | – | – | –
Cc1[nH]c2sccc2c1C(=O)c1cccc2ccccc12 [Compound I-3] | > 10000 nM | < 100 nM | 1000 to 10000 nM | – | – | – | – | – | –
Cc1[nH]c2ccsc2c1C(=O)c1cccc2ccccc12 [Compound I-4] | > 10000 nM | – | 1000 to 10000 nM | 1000 to 10000 nM | – | – | – | – | –
Cc1c(C(=O)c2cccc3ccccc23)c2ccsc2n1CCN1CCOCC1 [Compound I-5] | 100 to 1000 nM | < 100 nM | < 100 nM | – | – | – | – | – | –
CCCn1c(C)c(C(=O)c2c(C)n(CCC)c3sccc23)c2ccccc21 [Compound I-7] | 1000 to 10000 nM | – | 100 to 1000 nM | – | – | – | – | – | –
Cc1c(C(=O)c2cc3ccccc3[nH]2)c2ccsc2n1CCN1CCOCC1 [Compound I-10] | 1000 to 10000 nM | – | 100 to 1000 nM | – | – | – | – | – | –
CCCn1c(C)c(C(=O)c2cccc3ccccc23)c2sccc21 [Compound I-12] | 1000 to 10000 nM | < 100 nM | 100 to 1000 nM | – | – | – | – | – | –
CCCn1c(C(=O)c2c(C)[nH]c3sccc23)cc2ccccc21 [Compound I-13] | – | – | – | – | > 10000 nM | > 10000 nM | – | – | –
CCn1c(C(=O)c2c(C)n(CCCCl)c3ccccc23)cc2ccsc21 [Compound I-18] | 100 to 1000 nM | < 100 nM | < 100 nM | – | – | – | < 100 nM | – | –
CCCn1c(C)c(C(=O)c2cc3sccc3s2)c2ccccc21 [Compound I-20] | 1000 to 10000 nM | 100 to 1000 nM | 1000 to 10000 nM | – | – | – | 100 to 1000 nM | – | –
C=Cn1c(C)c(C(=O)c2cc3ccsc3n2CC)c2ccccc21 [Compound I-24] | – | – | 100 to 1000 nM | 100 to 1000 nM | – | – | – | B/C | < 100 nM
CCn1c(C(=O)c2c(C)n(CCC(=O)O)c3ccccc23)cc2ccsc21 [Compound I-27, 3-(3-(6-ethyl-6H-thieno[2,3-b]pyrrole-5-carbonyl)-2-methyl-1H-indol-1-yl)propanoic acid] | > 10000 nM | – | 100 to 1000 nM | – | – | – | – | – | 100 to 1000 nM
CCCn1c(C)c(C(=O)c2cc3ccsc3n2CCC)c2c1CCC(C)(C)C2 [Compound I-35] | 100 to 1000 nM | – | < 100 nM | < 100 nM | – | – | – | – | < 100 nM
CCn1c(C(=O)c2c[nH]c3ccccc23)cc2ccsc21 [Compound I-37] | > 10000 nM | – | 100 to 1000 nM | 100 to 1000 nM | – | – | – | – | < 100 nM
CCCn1c(C(=O)c2c[nH]c3ncccc23)cc2ccsc21 [Compound I-43] | > 10000 nM | – | 1000 to 10000 nM | 100 to 1000 nM | – | – | – | – | –
CCCn1c(C)c(C(=O)c2cc3ccsc3s2)c2ccccc21 [Compound I-46] | 1000 to 10000 nM | 100 to 1000 nM | 100 to 1000 nM | – | – | – | 100 to 1000 nM | – | –
CCCn1c(C)c(C(=O)c2cc3cc(Cl)sc3[nH]2)c2ccccc21 [Compound I-48] | 1000 to 10000 nM | 100 to 1000 nM | 100 to 1000 nM | – | – | – | 100 to 1000 nM | – | –
CCCn1c(C(=O)c2c(C)n(CC)c3ccccc23)cc2ccsc21 [Compound I-50] | 1000 to 10000 nM | < 100 nM | < 100 nM | – | – | – | < 100 nM | – | –
CCCn1c(C)c(C(=O)c2cc3ccsc3n2CCC)c2cc(Cl)ccc21 [Compound I-52] | 1000 to 10000 nM | 100 to 1000 nM | 100 to 1000 nM | – | – | – | 100 to 1000 nM | – | –
CCCn1c(C)c(C(=O)c2cc3ccsc3n2CC)c2ccccc21 [Compound I-54] | 1000 to 10000 nM | < 100 nM | < 100 nM | – | – | – | < 100 nM | – | –
CCCn1c(C)c(C(=O)c2cc3ccsc3n2C)c2ccccc21 [Compound I-55] | > 10000 nM | 100 to 1000 nM | 100 to 1000 nM | – | – | – | < 100 nM | – | –
CCCn1c(C)c(C(=O)c2cc3cc(C)n(CCC)c3s2)c2ccccc21 [Compound I-56] | 1000 to 10000 nM | < 100 nM | < 100 nM | – | – | – | < 100 nM | – | –
CCCn1c(C(=O)c2c(C)n(CCN3CCCCC3)c3ccccc23)cc2ccsc21 [Compound I-59] | 100 to 1000 nM | 100 to 1000 nM | < 100 nM | – | – | – | < 100 nM | – | –
CCCn1c(C)c(C(=O)c2cc3ccsc3n2CCC)c2cc(OC)ccc21 [Compound I-61] | 100 to 1000 nM | – | < 100 nM | – | – | – | 100 to 1000 nM | – | –
CCCn1c(C)c(C(=O)c2cc3cc(C)n(CCC)c3s2)c2ccccc21 [Compound I-63] | – | – | 100 to 1000 nM | – | – | – | – | – | –
CCCn1c(C(=O)c2c[nH]c3ccccc23)cc2ccsc21 [Compound I-64] | > 10000 nM | – | 100 to 1000 nM | 100 to 1000 nM | – | – | – | – | 100 to 1000 nM
CCCn1c(C)c(C(=O)c2cc3ccsc3n2CC)c2c1CCC(C)(C)C2 [Compound I-65] | 1000 to 10000 nM | – | < 100 nM | < 100 nM | – | – | – | – | < 100 nM
CCCn1c(C)c(C(=O)c2cc3occc3[nH]2)c2ccccc21 [Compound I-71] | > 10000 nM | – | 1000 to 10000 nM | – | – | – | – | – | –
CCCn1c(C)c(C(=O)c2cc3cc(C)[nH]c3s2)c2ccccc21 [Compound I-75] | > 10000 nM | – | 1000 to 10000 nM | – | – | – | – | – | –
